Source: ChEMBL document CHEMBL4004804, “Rationally designed benzopyran fused isoxazolidines and derived β2,3,3-amino alcohols as potent analgesics: Synthesis, biological evaluation and molecular docking analysis” (Eur J Med Chem, 2017)
The source made the active and inactive calls. The rule behind the calls is not given here.

Key:
[1] = tested on: Mus musculus; assay: Analgesic activity in Swiss albino mouse assessed as inhibition of formalin-induced paw flinching at 80 ug/kg administered for 30 mins followed by formalin challenge measured during 10 to 30 mins post formalin challenge; format: functional
[2] = tested on: Mus musculus; assay: Analgesic activity in Swiss albino mouse assessed as inhibition of acetic acid-induced abdominal constriction at 80 ug/kg administered for 30 mins followed by acetic acid challenge measured after 30 mins; format: functional
[3] = tested on: Mus musculus; assay: Analgesic activity in Swiss albino mouse assessed as inhibition of acetic acid-induced abdominal constriction at 10 mg/kg administered for 30 mins followed by acetic acid challenge measured after 30 mins relative to vehicle-treated control; format: functional; conditions: 0.5 h
[4] = tested on: Mus musculus; assay: Analgesic activity in Swiss albino mouse assessed as inhibition of formalin-induced paw flinching at 10 mg/kg administered for 30 mins followed by formalin challenge measured during first 5 mins post formalin challenge; format: functional
[5] = tested on: Mus musculus; assay: Analgesic activity in Swiss albino mouse assessed as inhibition of formalin-induced paw flinching at 10 mg/kg administered for 30 mins followed by formalin challenge measured during 10 to 30 mins post formalin challenge relative to vehicle-treated control; format: functional
[6] = tested on: Mus musculus; assay: Analgesic activity in Swiss albino mouse assessed as inhibition of acetic acid-induced abdominal constriction at 100 ug/kg administered for 30 mins followed by acetic acid challenge measured after 30 mins; format: functional
[7] = tested on: THP-1; assay: Antiinflammatory activity in PMA-treated human THP1 cells assessed as inhibition of LPS-induced TNF-alpha production after 24 hrs by ELISA; format: functional, cell-based; conditions: THP-1, 24 h
[8] = tested on: Mus musculus; assay: Acute toxicity in Swiss albino mouse assessed as effect on liver at 2000 mg/kg after 14 days by hematoxylin and eosin staining based assay; format: organism-based; conditions: in vivo, 336 h
[9] = tested on: Mus musculus; assay: Acute toxicity in Swiss albino mouse assessed as behavioral abnormality at 50 to 2000 mg/kg after 14 days; format: organism-based; conditions: in vivo, 336 h
[10] = tested on: Mus musculus; assay: Analgesic activity in Swiss albino mouse assessed as inhibition of acetic acid-induced abdominal constriction at 10 mg/kg administered for 30 mins followed by acetic acid challenge measured after 30 mins in presence of prostaglandin analogue misoprostol; format: functional, organism-based
[11] = tested on: THP-1; assay: Antiinflammatory activity in PMA-treated human THP1 cells assessed as inhibition of LPS-induced IL-6 production after 24 hrs by ELISA; format: functional, cell-based; conditions: THP-1, 24 h
[12] = tested on: Mus musculus; assay: Analgesic activity in Swiss albino mouse assessed as inhibition of formalin-induced paw flinching at 10 mg/kg administered for 30 mins followed by formalin challenge measured during 10 to 30 mins post formalin challenge in presence of opioid receptor antagonist naloxone; format: functional, organism-based
[13] = tested on: Mus musculus; assay: Analgesic activity in Swiss albino mouse assessed as inhibition of acetic acid-induced abdominal constriction at 10 mg/kg administered for 30 mins followed by acetic acid challenge measured after 30 mins in presence of opioid receptor antagonist naloxone; format: functional, organism-based
[14] = tested on: Mus musculus; assay: Acute toxicity in Swiss albino mouse assessed as effect on myocardium at 2000 mg/kg after 14 days by hematoxylin and eosin staining based assay; format: organism-based; conditions: in vivo, 336 h
[15] = tested on: THP-1; assay: Cytotoxicity against human THP1 cells assessed as decrease in cell proliferation after 24 to 48 hrs by MTT assay; format: cell-based

In the case of C=CCN1CC[C@]23c4c5ccc(O)c4O[C@H]2C(=O)CC[C@@]3(O)[C@H]1C5, the inhibition [1] is reported as “inactive” and the inhibition [2] is reported as “inactive”.
In the case of CN[C@@]1(C)c2cc(C)ccc2OC[C@H]1CO, the inhibition in vivo at 10 mg/kg [3] is reported as 59.3%.
With CN[C@@]1(C)c2cc(OC)ccc2OC[C@H]1CO the inhibition in vivo at 10 mg/kg [3] was 63.2%.
COc1ccc2c(c1)c(CC(=O)O)c(C)n2C(=O)c1ccc(Cl)cc1 [INDOMETHACIN] was tested, and the inhibition [4] was “inactive”, the inhibition in vivo at 10 mg/kg [5] was 50.6% and the inhibition in vivo at 10 mg/kg [3] was 56.7%.
CCCC[C@](C)(O)C/C=C/[C@H]1[C@H](O)CC(=O)[C@@H]1CCCCCCC(=O)OC was tested, and the inhibition [6] was “inactive”.
Compound Cc1ccc2c(c1)[C@@]1(C)[C@@H](CO2)CON1C has an inhibition in vivo at 10 mg/kg [3] of 68.2%.
In the case of COc1ccc2c(c1)[C@@]1(C)[C@@H](CO2)CON1C, the IC50 [7] is reported as 4.58 µM, the Activity [8] is reported as “Non-Toxic” and the Activity [9] is reported as “Non-Toxic”. The inhibition [10] was “Active”, the IC50 [11] was 1.12 µM and the inhibition [12] was “inactive”. For the same compound, the inhibition in vivo at 10 mg/kg [4] was 62.7%, the inhibition in vivo at 10 mg/kg [5] was 68.3% and the inhibition [13] was “inactive”. For the same compound, the Activity [14] was “Non-Toxic”, the inhibition in vivo at 10 mg/kg [3] was 69.4% and the IC50 [15] was > 100 µM.
